Laboratory results as given in patent US20250381157A1, “ANTIMICROBIAL COMPOUNDS” (priority 2022, published 2025).

Molecular target: T1, recombinant human HDAC7 (Homo sapiens, UniProt Q8WUI4)
T1 construct: purchased BPS 50007
T1 sequence (Q8WUI4 1-952): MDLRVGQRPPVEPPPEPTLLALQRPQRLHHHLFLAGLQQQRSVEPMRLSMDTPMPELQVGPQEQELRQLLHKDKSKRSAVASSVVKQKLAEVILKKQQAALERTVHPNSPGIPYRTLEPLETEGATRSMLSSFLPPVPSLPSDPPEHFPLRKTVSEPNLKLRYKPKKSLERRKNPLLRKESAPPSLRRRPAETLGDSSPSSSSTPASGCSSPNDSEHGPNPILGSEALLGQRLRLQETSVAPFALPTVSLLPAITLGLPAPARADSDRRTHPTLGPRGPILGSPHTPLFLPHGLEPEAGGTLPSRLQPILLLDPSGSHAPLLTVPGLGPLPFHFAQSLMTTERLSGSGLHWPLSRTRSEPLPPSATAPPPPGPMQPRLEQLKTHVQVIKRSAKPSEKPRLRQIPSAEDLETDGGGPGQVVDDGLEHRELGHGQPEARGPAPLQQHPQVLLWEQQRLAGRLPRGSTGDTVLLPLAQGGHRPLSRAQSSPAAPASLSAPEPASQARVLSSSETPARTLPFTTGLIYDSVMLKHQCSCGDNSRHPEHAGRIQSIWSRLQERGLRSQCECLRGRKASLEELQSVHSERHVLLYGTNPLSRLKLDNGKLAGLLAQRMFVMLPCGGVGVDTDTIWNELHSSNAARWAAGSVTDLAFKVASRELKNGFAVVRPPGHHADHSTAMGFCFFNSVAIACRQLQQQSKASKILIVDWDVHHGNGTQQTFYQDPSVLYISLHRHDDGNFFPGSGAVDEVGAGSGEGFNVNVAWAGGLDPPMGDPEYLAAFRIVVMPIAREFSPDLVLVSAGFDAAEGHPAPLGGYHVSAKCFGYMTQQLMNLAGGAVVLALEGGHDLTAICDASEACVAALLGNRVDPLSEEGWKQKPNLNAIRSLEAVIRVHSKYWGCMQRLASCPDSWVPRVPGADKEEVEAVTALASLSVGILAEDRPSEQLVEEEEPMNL
Assay: HDAC7 in-vitro enzymatic assay
Type: biochemical
Description: All of the compounds were dissolved in DMSO. A series of dilutions of the compounds were prepared with 10% DMSO in HDAC assay buffer and 5 μl of the dilution was added to a 50 μl reaction so that the final concentration of DMSO was 1% in all of reactions. The compounds were pre-incubated in duplicate at RT for 30 minutes in a mixture containing HDAC assay buffer, 5 μg BSA, HDAC enzyme and a test compound. After 30 minutes, the enzymatic reactions were initiated by the addition of HDAC substrate to a final concentration of 20 μM or 2 μM. The enzymatic reaction proceeded for 30 minutes at 37° C. After enzymatic reactions, 50 μl of 2×HDAC Developer was added to each well for the HDAC enzymes and the plate was incubated at room temperature for an additional 15 minutes. Fluorescence intensity was measured at an excitation of 360 nm and an emission of 460 nm using a Tecan Infinite M1000 microplate reader.
HDAC activity assays were performed in duplicates at each concentration. The fluorescent intensity data were analyzed using the computer software, Graphpad Prism. […] The percent activity in the presence of each compound was calculated according to the following equation: % activity=(F−Fb)/(Ft−Fb), where F=the fluorescent intensity in the presence of the compound. […] The IC50 value was determined by the concentration causing a half-maximal percent activity.

Structure (SMILES): C#CCOCC(=O)Nc1ccc(C(=O)Nc2ccccc2N)cc1 [Compound 1, N-(2-aminophenyl)-4-{2-[(prop-2-yn-1-yl)oxy]acetamido}benzamide]
- IC50: > 200 µM
- Inhib. HDAC7 (@ 200 μM): No Inhib. @ 200 μM
